Results as given in patent US20260055102A1 (Redx Pharma Limited, priority 2022, published 2026).

Key:
[1] = target: Recombinant human DDR1 (aa440-876 containing a GST tag) (Homo sapiens (Human), UniProt Q08345); assay: LanthaScreen Eu Kinase Binding Assay DDR1; details: Kinase Tracer 178 5 nM, at least two independent replicates; for IC50: read-out: DDR1 pIC50 (converted)
Experimental: (§1) DDR1 and DDR2 Biochemical Assay Method The capacity of compounds to bind to DDR1 and DDR2 was quantified using a LanthaScreen Eu Kinase Binding Assay. Recombinant human DDR1 (2.5 nM; aa440-876 containing a GST tag) and DDR2 (1.75 nM; aa427-855 containing a GST tag) were diluted in assay buffer (50 mM HEPES pH7.3, 10 mM MgCl2, 1 mM EGTA and 0.01% Tween) with various concentrations of compound in a 384-well plate and a volume of 5 uL. After a 30-minute incubation at room temperature, 2.5 uL of Eu-anti GST antibody (diluted to 1 nM in assay buffer) plus Kinase Tracer 178 (diluted in assay buffer to 5 nM for DDR1 and 10 nM for DDR2) were added to the plate. Following 60-minute incubation at room temperature, time-resolved fluorescence was measured on a BMG Labtech PHERAstar plate reader. DMSO (1%) and reference compound (1 μM) were used to generate the Max and Min assay signals, respectively. Data was analysed using a four-parameter logistic model to calculate IC50 values, with at least two independent replicates were performed for each compound.

[2] = target: Recombinant human DDR2 (aa427-855 containing a GST tag) (Homo sapiens (Human), UniProt Q16832); assay: LanthaScreen Eu Kinase Binding Assay DDR2; details: Kinase Tracer 178 10 nM, at least two independent replicates; for IC50: read-out: DDR2 pIC50 (converted)
Recombinant human DDR2 (aa427-855 containing a GST tag), sequence (Q16832 427-855): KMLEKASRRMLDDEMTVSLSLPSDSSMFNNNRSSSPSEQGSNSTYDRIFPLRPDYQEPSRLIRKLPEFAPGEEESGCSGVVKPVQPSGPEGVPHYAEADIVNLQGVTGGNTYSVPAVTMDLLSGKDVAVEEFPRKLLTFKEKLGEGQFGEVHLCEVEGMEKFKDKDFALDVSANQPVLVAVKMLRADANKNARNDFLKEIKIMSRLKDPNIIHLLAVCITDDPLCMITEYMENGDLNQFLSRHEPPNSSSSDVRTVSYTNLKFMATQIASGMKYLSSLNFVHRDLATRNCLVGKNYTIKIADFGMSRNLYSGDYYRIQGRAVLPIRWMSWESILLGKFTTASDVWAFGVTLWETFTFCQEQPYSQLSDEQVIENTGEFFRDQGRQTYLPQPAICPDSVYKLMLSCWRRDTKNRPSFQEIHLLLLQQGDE
Experimental: as §1

Recombinant human DDR1 (aa440-876 containing a GST tag), sequence (Q08345 other isoform, or with tags, fused parts or gaps): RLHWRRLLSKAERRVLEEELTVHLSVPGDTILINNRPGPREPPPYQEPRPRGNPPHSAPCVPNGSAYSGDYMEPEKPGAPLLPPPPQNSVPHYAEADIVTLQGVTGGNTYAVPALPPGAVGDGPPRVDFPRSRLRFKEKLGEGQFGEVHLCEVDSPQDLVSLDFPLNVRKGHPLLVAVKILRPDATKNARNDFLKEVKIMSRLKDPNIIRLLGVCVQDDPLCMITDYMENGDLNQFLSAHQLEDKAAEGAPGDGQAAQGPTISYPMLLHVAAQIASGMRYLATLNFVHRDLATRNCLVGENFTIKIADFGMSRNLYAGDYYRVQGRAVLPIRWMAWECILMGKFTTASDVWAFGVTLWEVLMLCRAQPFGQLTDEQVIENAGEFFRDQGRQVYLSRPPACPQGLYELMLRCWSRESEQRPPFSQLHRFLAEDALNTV

Structure (SMILES) | IC50 [1] [nM] | DDR2 pIC50 [2] | DDR1 pIC50 [1] | IC50 [2] [nM]
CC(CNC(=O)Cn1c(=O)n(-c2ccc(-c3cncc4c3cnn4C)cc2)c2ccccc21)C(F)(F)F (stereo not shown) [Example 33, 2-[3-[4-(1-methylpyrazolo[3,4-c]pyridin-4-yl)phenyl]-2-oxobenzimidazol-1-yl]-N-(3,3,3-trifluoro-2-methyl-propyl)acetamide] | 10 to 100 | D (pIC50≤6) |  | 
Cn1ncc2c(-c3ccc(-n4c(=O)n(CC(=O)NCCC(F)(F)F)c5ccccc54)cc3)cncc21 [Example 46, 2-[3-[4-(1-methylpyrazolo[3,4-c]pyridin-4-yl)phenyl]-2-oxo-benzimidazol-1-yl]-N-(3,3,3-trifluoropropyl)acetamide] | 10 to 100 | D (pIC50≤6) |  | 
Cc1ncc2c(cnn2C)c1-c1ccc(-n2c(=O)n(CC(=O)NCC(F)(F)F)c3cccc(C)c32)cn1 [Example 109] |  | D (pIC50≤6) | D (pIC50≤6) | 
Cn1ncc2c(-c3ccc(-n4c(=O)n(CC(=O)N5CCOCC5)c5ccccc54)cc3)cncc21 [Example 22, 1-[4-(1-methylpyrazolo[3,4-c]pyridin-4-yl)phenyl]-3-(2-morpholino-2-oxoethyl)benzimidazol-2-one] |  | D (pIC50≤6) | D (pIC50≤6) | 
Cc1cc(-c2cncc3c2cnn3C)ccc1-n1c(=O)n(CC(=O)N[C@@H](C)C(F)(F)F)c2cccc(C)c21 [Example 82, 2-[4-methyl-3-[2-methyl-4-(1-methylpyrazolo[3,4-c]pyridin-4-yl)phenyl]-2-oxo-benzimidazol-1-yl]-N-[(1S)-2,2,2-trifluoro-1-methyl-ethyl]acetamide] |  |  | A (pIC50>8) | 10 to 100
Cc1cccc2c1n(-c1cnc(-c3cncc4c3cnn4C)nc1)c(=O)n2CC(=O)NCC(F)(F)F [Example 75, 2-[4-methyl-3-[2-(1-methylpyrazolo[3,4-c]pyridin-4-yl)pyrimidin-5-yl]-2-oxo-benzimidazol-1-yl]-N-(2,2,2-trifluoroethyl)acetamide] | 10 to 100 |  |  | 100 to 1000
COc1cccc2c1n(-c1ccc(-c3cncc4c3cnn4C)cc1)c(=O)n2CC(=O)NCC(F)(F)F [Example 12, 2-[4-methoxy-3-[4-(1-methylpyrazolo[3,4-c]pyridin-4-yl)phenyl]-2-oxobenzimidazol-1-yl]-N-(2,2,2-trifluoroethyl)acetamide] | 10 to 100 | D (pIC50≤6) |  | 
Cn1ncc2c(-c3ccc(-n4c(=O)n(CC(=O)NCC(F)(F)F)c5cnccc54)cc3)cncc21 [Example 78, 2-[1-[4-(1-methylpyrazolo[3,4-c]pyridin-4-yl)phenyl]-2-oxo-imidazo[4,5-c]pyridin-3-yl]-N-(2,2,2-trifluoroethyl)acetamide] |  | D (pIC50≤6) | D (pIC50≤6) | 
Cn1ncc2c(-c3ccc(-n4c(=O)n(CC(=O)N5CCO[C@H](C(F)(F)F)C5)c5ccccc54)cc3)cncc21 [Example 38, 1-[4-(1-methylpyrazolo[3,4-c]pyridin-4-yl)phenyl]-3-[2-oxo-2-[(2S)-2-(trifluoromethyl)morpholin-4-yl]ethyl]benzimidazol-2-one] | 10 to 100 | D (pIC50≤6) |  | 
Cc1cccc2c1n(-c1ccc(-c3cncc4c3cnn4C)nn1)c(=O)n2CC(=O)NCC(F)(F)F [Example 67, 2-[4-methyl-3-[6-(1-methylpyrazolo[3,4-c]pyridin-4-yl)pyridazin-3-yl]-2-oxo-benzimidazol-1-yl]-N-(2,2,2-trifluoroethyl)acetamide] | 10 to 100 |  |  | 100 to 1000
Cn1ncc2c(-c3ccc(-n4c(=O)n(CC(=O)NCC(F)(F)F)c5cccc(Cl)c54)cc3)cncc21 [Example 11, 2-[4-chloro-3-[4-(1-methylpyrazolo[3,4-c]pyridin-4-yl)phenyl]-2-oxobenzimidazol-1-yl]-N-(2,2,2-trifluoroethyl)acetamide] |  |  | A (pIC50>8) | 10 to 100
Cn1ncc2c(-c3ccc(-n4c(=O)n(CC(=O)N5CCC[C@H]5C(F)(F)F)c5ccccc54)cc3)cncc21 [Example 2, 1-[4-(1-methylpyrazolo[3,4-c]pyridin-4-yl)phenyl]-3-[2-oxo-2-[(2S)-2-(trifluoromethyl)pyrrolidin-1-yl]ethyl]benzimidazol-2-one] |  |  | A (pIC50>8) | 100 to 1000
Cc1cccc2c1n(-c1ccc(-c3cncc4c3cnn4C)cc1)c(=O)n2CC(=O)N[C@@H](C)C(F)(F)F [Example 7, 2-[4-methyl-3-[4-(1-methylpyrazolo[3,4-c]pyridin-4-yl)phenyl]-2-oxobenzimidazol-1-yl]-N-[(1S)-2,2,2-trifluoro-1-methylethyl]acetamide] |  | A (pIC50>8) | A (pIC50>8) | 
Cn1ncc2c(-c3ccc(-n4c(=O)n(CC(=O)N5CC(F)(F)C5)c5ccccc54)cc3)cncc21 [Example 35, 1-[2-(3,3-difluoroazetidin-1-yl)-2-oxoethyl]-3-[4-(1-methylpyrazolo[3,4-c]pyridin-4-yl)phenyl]benzimidazol-2-one] |  | D (pIC50≤6) | D (pIC50≤6) | 
Cn1ncc2c(-c3ccc(-n4c(=O)n(CC(=O)N5CCCCC5C(F)(F)F)c5ccccc54)cc3)cncc21 (stereo not shown) [Example 20, 1-[4-(1-methylpyrazolo[3,4-c]pyridin-4-yl)phenyl]-3-[2-oxo-2-[2-(trifluoromethyl)-1-piperidyl]ethyl]benzimidazol-2-one] |  |  | A (pIC50>8) | 100 to 1000
C[C@@H](CC(F)(F)F)NC(=O)Cn1c(=O)n(-c2ccc(-c3cncc4c3cnn4C)cc2)c2ccccc21 [Example 62, 2-[3-[4-(1-methylpyrazolo[3,4-c]pyridin-4-yl)phenyl]-2-oxo-benzimidazol-1-yl]-N-[(1S)-3,3,3-trifluoro-1-methyl-propyl]acetamide] |  |  | A (pIC50>8) | 100 to 1000
Cn1ncc2c(-c3ccc(-n4c(=O)n(CC(=O)NCC(F)(F)F)c5ccccc54)nc3)cncc21 [Example 63, 2-[3-[5-(1-methylpyrazolo[3,4-c]pyridin-4-yl)-2-pyridyl]-2-oxo-benzimidazol-1-yl]-N-(2,2,2-trifluoroethyl) acetamide] | 100 to 1000 | D (pIC50≤6) |  | 
Cc1cccc2c1n(-c1ccc(-c3cncc4c3cnn4C)cc1)c(=O)n2CC(=O)N1CCC[C@H]1CF [Example 26, 4-methyl-3-[4-(1-methylpyrazolo[3,4-c]pyridin-4-yl)phenyl]-1-[2-oxo-2-[(2S)-2-(fluoromethyl)pyrrolidin-1-yl]ethyl]benzimidazol-2-one] | 10 to 100 |  |  | 
CN(C)c1cccc2c1n(-c1ccc(-c3cncc4c3cnn4C)cc1)c(=O)n2CC(=O)NCC(F)(F)F [Example 80, 2-[4-(dimethylamino)-3-[4-(1-methylpyrazolo[3,4-c]pyridin-4-yl)phenyl]-2-oxo-benzimidazol-1-yl]-N-(2,2,2-trifluoroethyl)acetamide] | 10 to 100 |  |  | 
Cc1cccc2c1n(-c1ccc(-c3cncc4c3cnn4C)cn1)c(=O)n2CC(=O)N1CCO[C@H](C(F)(F)F)C1 [Example 61, 4-methyl-3-[5-(1-methylpyrazolo[3,4-c]pyridin-4-yl)-2-pyridyl]-1-[2-oxo-2-[(2S)-2-(trifluoromethyl)morpholin-4-yl]ethyl]benzimidazol-2-one] |  |  |  | 100 to 1000
